Laboratory results taken from patent publication US20250250286A1, “FUSED PYRIMIDINE DERIVATIVES AS KRAS ONCOPROTEIN INHIBITORS” (BETA PHARMA, INC., priority 2021, published 2025).
Where a name gives a salt, the structure may show the parent alone.

Molecular target: T1, KRAS G12D (Homo sapiens, UniProt P01116, G12D)
T1 construct: Recombinant human KRAS G12D (aa 2-169, expressed in E. coli); His-tag (TEV cleavable) (N); purchased Reaction Biology Corporation (RBC) SOS1: RBC cat #MSC-11-502; KRAS G12D: not given; host or cells: E. coli
T1 sequence (P01116 2-169 G12D): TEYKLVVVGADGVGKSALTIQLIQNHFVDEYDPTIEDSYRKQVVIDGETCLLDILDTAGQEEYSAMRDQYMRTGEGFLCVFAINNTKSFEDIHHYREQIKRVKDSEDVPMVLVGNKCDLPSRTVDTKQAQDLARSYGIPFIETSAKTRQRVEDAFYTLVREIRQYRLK
Assay: KRAS G12D/SOS1 Nucleotide Exchange Assay (SOS1-mediated Bodipy-GDP to GTP exchange)
Assay type: biochemical
Settings: rate constant method (plateau = 0), Bodipy-GDP/KRAS G12D as substrate, 0.5% DMSO, 30 min pre-incubation at RT
Method: The compound pre-incubation time was 30 min at RT and the curve fits were performed when the activities at the highest concentration of compounds were less than 65%.
Reaction Buffer: 40 mM HEPES 7.4, 10 mM MgCl2, 1 mM DTT 0.002% Triton ×100, 0.5% DMSO.
KRAS is pre-loaded with a 5-fold excess of Bodipy-GDP. The excess Bodipy-GDP is separated from loaded protein using a spin desalting column.
• 1. Deliver 10 μL of 1.5× KRAS solution in freshly prepared reaction buffer to reaction wells. • 2. Deliver compounds in 100% DMSO into buffer using acoustic technology (Echo550; nanoliter range). • 3. Incubate compounds with KRAS for 30 minutes at room temperature. • 4. Prepare 3× (SOS1+GTP) solution in reaction buffer. • 5. Deliver 5 μL of SOS1+GTP solution into reactions wells (deliver GTP only to column 1 for no SOS1 control). • 6.
Data Analysis: The fluorescence data was normalized using the equation below and fitted to “one phase exponential decay” equation using GraphPad prism software. The plateau was fixed to zero (use for non-covalent inhibitors) and rate ×1000 was used to calculate the IC50 values.
[formula] • where Yraw is defined as fluorescence at time t, Ao is the average initial fluorescence with no SOS1, and M is the minimum fluorescence at the end of the reaction at the maximum SOS1.
The background subtracted signals (no SOS1 protein wells were used as background) were converted to % activity relative to DMSO controls. Data was analyzed using GraphPad Prism 4 with “sigmoidal dose-response (variable slope)”; 4 parameters with Hill Slope. The constraints were bottom (constant equal to 0) and top (must be less than 120).

| Compound | IC50 [nM] |
| --- | --- |
| CN1CCC[C@H]1COc1nc(N2C[C@H]3CC[C@@H](C2)N3)c2ccc(-c3cccc4cccc(Cl)c34)nc2n1 [Example 3, 4-((1R,5S)-3,8-Diazabicyclo[3.2.1]octan-3-yl)-7-(8-chloronaphthalen-1-yl)-2-(((S)-1-methylpyrrolidin-2-yl)methoxy)pyrido[2,3-d]pyrimidine] | > 10000 |
| Clc1cccc2cccc(-c3ccc4c(N5C[C@H]6CC[C@@H](C5)N6)nc(OCC56CCCN5CCC6)nc4n3)c12 [Example 4, 4-((1R,5S)-3,8-diazabicyclo[3.2.1]octan-3-yl)-7-(8-chloronaphthalen-1-yl)-2-((tetrahydro-1H-pyrrolizin-7a(5H)-yl)methoxy)pyrido[2,3-d]pyrimidine] | 8600 |
| Clc1cccc2cccc(-c3cnc4c(N5C[C@H]6CC[C@@H](C5)N6)nc(OCC56CCCN5CCC6)nc4c3)c12 [Example 1, 4-((1R,5S)-3,8-Diazabicyclo[3.2.1]octan-3-yl)-7-(8-chloronaphthalen-1-yl)-2-((tetrahydro-1H-pyrrolizin-7a(5H)-yl)methoxy)pyrido[3,2-d]pyrimidine hydrochloride (1:3)] | 610 |

Stronger by IC50, values ahead:

| IC50 [nM] | Compound |
| --- | --- |
| 35 ± 5.7 | Oc1cc(-c2cnc3c(N4C[C@H]5CC[C@@H](C4)N5)nc(OCC45CCCN4CCC5)nc3c2)c2ccccc2c1 [Example 2, 4-(4-((1R,5S)-3,8-Diazabicyclo[3.2.1]octan-3-yl)-2-((tetrahydro-1H-pyrrolizin-7a(5H)-yl)methoxy)pyrido[3,2-d]pyrimidin-7-yl)naphthalen-2-ol] |
| 28 | C#Cc1c(F)ccc2cc(O)cc(-c3cnc4c(N5C[C@H]6CC[C@@H](C5)N6)nc(OC[C@@]56CCCN5C[C@H](F)C6)nc4c3)c12 [Example 5, 4-(4-((1R,5S)-3,8-Diazabicyclo[3.2.1]octan-3-yl)-2-(((2R,7aS)-2-fluorotetrahydro-1H-pyrrolizin-7a(5H)-yl)methoxy)pyrido[3,2-d]pyrimidin-7-yl)-5-ethynyl-6-fluoronaphthalen-2-ol] |
